One may read the melting point as the temperature of the solid-liquid transition.

The values below come from patent publication US20010021710A1, “NOVEL CIS-3,4-CHROMAN DERIVATIVES USEFUL IN THE PREVENTION OR TREATMENT OF ESTROGEN RELATED DISEASES OR SYNDROMES” (priority 1996, published 2001).

Turning to `Oc1ccc2c(c1)OC[C@@H](c1c(F)c(F)c(F)c(F)c1F)[C@H]2c1ccc(OCCN2CCCCC2)cc1` (racemic) [Example 25, (±)-cis-7-Hydroxy-3-(2,3,4,5,6-pentafluorophenyl)-4-(4-(2-piperidinoethoxy)phenyl)chromane], the melting point is 174 °C (dec.).
`Oc1ccc2c(c1)OC[C@@H](c1c(F)c(F)c(F)c(F)c1F)[C@H]2c1ccc(OCCN2CCCC2)cc1` (racemic) [Example 24, (±)-cis-7-Hydroxy-3-(2,3,4,5,6-pentafluorophenyl)-4-(4-(2-pyrrolidinoethoxy)phenyl)chromane]: the melting point was 125 °C (dec.).
The compound `Cc1ccc([C@@H]2COc3cc(O)ccc3[C@@H]2c2ccc(OCCN3CCCCC3)cc2)cc1` (racemic) [Example 13, (±)-cis-7-Hydroxy-3-(4-methylphenyl)-4-(4-(2-piperidinoethoxy)phenyl)chromane] registered a melting point of 146 to 147.5 °C.
With `Oc1ccc2c(c1)OC[C@@H](c1ccc(C(F)(F)F)cc1)[C@H]2c1ccc(OCCN2CCCC2)cc1` [Example 1, (+)-cis-7-Hydroxy-4-(4-(2-pyrrolidinoethoxy)phenyl)-3-(4-(trifluoromethyl)phenyl)-chromane] the figure was 100 °C (dec.); with `Cc1cccc([C@@H]2COc3cc(O)ccc3[C@@H]2c2ccc(OCCN3CCCC3)cc2)c1` (racemic) [Example 16, (±)-cis-7-Hydroxy-3-(3-methylphenyl)-4-(4-(2-pyrrolidinoethoxy)phenyl)chromane], 85 to 90 °C; with `Oc1ccc([C@@H]2COc3cc(O)ccc3[C@@H]2c2ccc(OCCN3CCCC3)cc2)cc1` (racemic) [Example 10, (±)-cis-7-Hydroxy-3-(4-hydroxyphenyl)-4-(4-(2-pyrrolidinoethoxy)phenyl)chromane], 112 to 116 °C.
Regarding `Oc1cccc([C@@H]2COc3cc(O)ccc3[C@@H]2c2ccc(OCCN3CCCCC3)cc2)c1` (racemic) [Example 19, (±)-cis-7-Hydroxy-3-(3-hydroxyphenyl)-4-(4-(2-piperidinoethoxy)phenyl)chromane], the melting point is 144 °C (dec.).
As for `Oc1ccc2c(c1)OC[C@@H](c1ccc(F)cc1)[C@H]2c1ccc(OCCN2CCCC2)cc1` (racemic) [Example 7, (±)-cis-7-Hydroxy-3-(4-fluorophenyl)-4-(4-(2-pyrrolidinoethoxy)phenyl)chromane], the figure is 164 to 167 °C; as for `Oc1ccc2c(c1)OC[C@@H](c1ccccc1F)[C@H]2c1ccc(OCCN2CCCC2)cc1` (racemic) [Example 23, (±)-cis-3-(2-Fluorophenyl)-7-hydroxy-4-(4-(2-pyrrolidinoethoxy)phenyl)chromane], 190 °C (dec.); as for `Oc1ccc2c(c1)OC[C@@H](c1cccc(C(F)(F)F)c1)[C@H]2c1ccc(OCCN2CCCC2)cc1` (racemic) [Example 21, (±)-cis-7-Hydroxy-4-(4-(2-pyrrolidinoethoxy)phenyl)-3-(3-(trifluoromethyl)phenyl)-chromane], 87 to 89 °C.
On to `Oc1ccc2c(c1)OC[C@@H](c1cccc(F)c1)[C@H]2c1ccc(OCCN2CCCC2)cc1` (racemic) [Example 17, (±)-cis-3-(3-Fluorophenyl)-7-hydroxy-4-(4-(2-pyrrolidinoethoxy)phenyl)chromane], for which the melting point was in the range of 146 to 150 °C.
As to `Oc1ccc2c(c1)OC[C@@H](c1ccc(F)cc1)[C@H]2c1ccc(OCCN2CCCCC2)cc1` (racemic) [Example 8, (±)-cis-7-Hydroxy-3-(4-fluorophenyl)-4-(4-(2-piperidinoethoxy)phenyl)-chromane], the melting point was in the range of 146 to 147 °C.
On to `Oc1ccc2c(c1)OC[C@@H](c1cccc(C(F)(F)F)c1)[C@H]2c1ccc(OCCN2CCCCC2)cc1` (racemic) [Example 22, (±)-cis-7-Hydroxy-4-(4-(2-piperidinoethoxy)phenyl)-3-(3-(trifluoromethyl)phenyl)-chromane], for which the melting point was 118 to 119 °C.
As to `Cc1ccc([C@@H]2COc3cc(O)ccc3[C@@H]2c2ccc(OCCN3CCCC3)cc2)cc1` (racemic) [Example 12, (±)-cis-7-Hydroxy-3-(4-methylphenyl)-4-(4-(2-pyrrolidinoethoxy)phenyl)chromane], the melting point was 161 to 165 °C.
For the compound `Oc1ccc2c(c1)OC[C@@H](c1ccc(F)cc1)[C@H]2c1ccc(OCCCN2CCCCC2)cc1` (racemic) [Example 9, (±)-cis-7-Hydroxy-3-(4-fluorophenyl)-4-(4-(3-piperidinopropoxy)phenyl)chromane], the melting point is 78 to 84 °C.
